Test [1] addresses Mitogen-activated protein kinase 1 (Homo sapiens, UniProt P28482). As to the kind of experiment: DRUGMATRIX: Protein Serine/Threonine Kinase, ERK2 enzyme inhibition (substrate: Myelin Basic Protein). The settings on record: Not Active = under 50% inhibition at 10 µM. On the set-up: species or system Escherichia coli.
In test [2] the target is Prostaglandin G/H synthase 1 (Homo sapiens, UniProt P23219). As to the kind of experiment: biochemical. The format is tissue-based, Platelet. The settings on record: platelet.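 Note: inhibition of COX-1 enzyme activity, with arachidonic acid supplied as substrate; in other assays of this panel Not Active means under 50% inhibition at 10 µM.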
The target of test [3] is Matrix metalloproteinase-9 (Homo sapiens, UniProt P14780). The format is cell-based.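 Note: inhibition of isolated MMP-9 enzyme activity toward a synthetic peptide substrate, from the DrugMatrix protease screening panel; in other assays of this panel Not Active means under 50% inhibition at 10 µM.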
Test [4] addresses Kappa-type opioid receptor (Homo sapiens, UniProt P41145). As to the kind of experiment: DRUGMATRIX: Opiate kappa (OP2, KOP) radioligand binding (ligand: [3H] Diprenorphine). The format is cell membranes, HEK293, Membrane. The settings on record: hek293; Not Active = under 50% inhibition at 10 µM.
The target in the next test is T1, B2 bradykinin receptor (Homo sapiens, UniProt P30411). Note: in other assays of this panel Not Active means under 50% inhibition at 10 µM.
T1 sequence (P30411 whole entry): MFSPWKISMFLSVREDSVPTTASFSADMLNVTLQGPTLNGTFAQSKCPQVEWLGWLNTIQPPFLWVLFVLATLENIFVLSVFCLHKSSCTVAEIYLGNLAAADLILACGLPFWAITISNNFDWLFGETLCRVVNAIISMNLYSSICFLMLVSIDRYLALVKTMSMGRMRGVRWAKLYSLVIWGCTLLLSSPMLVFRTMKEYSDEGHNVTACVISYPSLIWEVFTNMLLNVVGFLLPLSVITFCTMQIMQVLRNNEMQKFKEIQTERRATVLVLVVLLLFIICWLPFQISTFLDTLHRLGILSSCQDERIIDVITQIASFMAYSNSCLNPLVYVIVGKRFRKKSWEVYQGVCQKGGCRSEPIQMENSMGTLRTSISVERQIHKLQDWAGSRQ
The format is cell membranes, Membrane. The note with it: chem-1.

Test [5] in a line: DRUGMATRIX: Potassium Channel [KATP] radioligand binding (ligand: [3H] Glyburide). The format is cell membranes, Membrane. The note with it: hit-t15; Not Active = under 50% inhibition at 10 µM.
The target of test [6] is T2, Muscarinic acetylcholine receptor M4 (Homo sapiens, UniProt P08173). Note: in other assays of this panel Not Active means under 50% inhibition at 10 µM.
T2 sequence (P08173 whole entry): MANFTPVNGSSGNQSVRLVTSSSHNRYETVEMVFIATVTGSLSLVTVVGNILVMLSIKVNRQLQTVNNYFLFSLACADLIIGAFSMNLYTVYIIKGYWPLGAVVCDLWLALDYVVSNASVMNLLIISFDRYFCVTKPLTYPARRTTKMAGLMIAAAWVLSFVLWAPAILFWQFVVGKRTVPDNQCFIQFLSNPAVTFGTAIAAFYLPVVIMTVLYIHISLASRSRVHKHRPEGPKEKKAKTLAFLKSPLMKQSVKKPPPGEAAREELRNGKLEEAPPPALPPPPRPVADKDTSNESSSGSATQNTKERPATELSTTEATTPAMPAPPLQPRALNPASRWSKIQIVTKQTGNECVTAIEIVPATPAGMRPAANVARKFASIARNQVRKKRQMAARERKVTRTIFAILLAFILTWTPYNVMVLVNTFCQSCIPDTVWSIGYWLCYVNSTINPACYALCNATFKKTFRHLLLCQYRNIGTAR
The format is cell membranes, CHO-K1, Membrane. The note with it: cho-k1.

The next test deals with T3, Caspase-1 (Homo sapiens, UniProt P29466).
T3 sequence (P29466 whole entry): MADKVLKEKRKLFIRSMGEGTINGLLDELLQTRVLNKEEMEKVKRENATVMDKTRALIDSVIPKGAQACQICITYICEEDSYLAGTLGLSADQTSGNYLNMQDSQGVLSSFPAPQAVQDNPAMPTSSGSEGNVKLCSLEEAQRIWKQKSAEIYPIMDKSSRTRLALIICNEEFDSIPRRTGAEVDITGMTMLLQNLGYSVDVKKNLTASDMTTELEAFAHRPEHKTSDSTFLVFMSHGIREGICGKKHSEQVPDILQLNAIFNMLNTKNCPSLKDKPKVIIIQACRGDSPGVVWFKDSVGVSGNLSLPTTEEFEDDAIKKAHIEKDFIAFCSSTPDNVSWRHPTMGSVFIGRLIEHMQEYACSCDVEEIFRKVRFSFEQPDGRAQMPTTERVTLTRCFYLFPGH
More on the design: species or system Escherichia coli.

The target in the next test is Acetylcholinesterase (Homo sapiens, UniProt P22303). Nature of the test: DRUGMATRIX: Acetylcholinesterase enzyme inhibition (substrate: acetylthiocholine). The format is cell-based, HEK293. The settings on record: hek293; Not Active = under 50% inhibition at 10 µM.
Test [7] is described as follows: DRUGMATRIX: Sigma2 radioligand binding (ligand: [3H] Ifenprodil). The format is cell membranes, Rattus norvegicus, Wistar, Brain, Membrane. The note with it: Not Active = under 50% inhibition at 10 µM.
The target of test [8] is T4, 3-hydroxy-3-methylglutaryl-coenzyme A reductase (Homo sapiens, UniProt P04035).
T4 sequence (P04035 whole entry): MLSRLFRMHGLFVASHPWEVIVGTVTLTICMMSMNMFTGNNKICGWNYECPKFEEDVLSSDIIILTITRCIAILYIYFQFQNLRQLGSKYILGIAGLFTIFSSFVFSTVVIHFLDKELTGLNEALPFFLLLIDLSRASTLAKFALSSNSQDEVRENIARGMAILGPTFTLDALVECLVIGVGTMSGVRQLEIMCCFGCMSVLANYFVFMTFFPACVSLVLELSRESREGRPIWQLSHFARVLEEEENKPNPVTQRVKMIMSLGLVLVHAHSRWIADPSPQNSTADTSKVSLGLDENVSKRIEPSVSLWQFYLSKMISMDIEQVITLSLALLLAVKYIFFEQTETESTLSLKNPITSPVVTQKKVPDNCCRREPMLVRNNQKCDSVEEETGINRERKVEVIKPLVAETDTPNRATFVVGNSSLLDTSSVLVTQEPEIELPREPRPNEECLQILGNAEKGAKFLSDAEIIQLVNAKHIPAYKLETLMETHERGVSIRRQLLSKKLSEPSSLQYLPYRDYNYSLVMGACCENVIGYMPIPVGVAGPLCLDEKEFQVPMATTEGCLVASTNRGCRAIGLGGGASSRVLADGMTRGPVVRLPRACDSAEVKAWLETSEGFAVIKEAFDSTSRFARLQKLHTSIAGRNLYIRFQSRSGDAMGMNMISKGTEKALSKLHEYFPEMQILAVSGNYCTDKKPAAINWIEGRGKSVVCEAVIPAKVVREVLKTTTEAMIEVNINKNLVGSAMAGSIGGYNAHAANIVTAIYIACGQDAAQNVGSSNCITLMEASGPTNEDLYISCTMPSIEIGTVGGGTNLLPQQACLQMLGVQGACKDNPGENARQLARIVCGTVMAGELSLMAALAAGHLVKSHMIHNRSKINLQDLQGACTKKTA
More on the design: species or system Escherichia coli.

For another test, the target named is Melanocortin receptor 4 (Homo sapiens, UniProt P32245). The format is cell membranes, Membrane. The note with it: hek293. Note: in other assays of this panel Not Active means under 50% inhibition at 10 µM.
For a further test, the target named is Carbonic anhydrase 2 (Homo sapiens, UniProt P00918). Nature of the test: DRUGMATRIX: Carbonic Anhydrase II enzyme inhibition (substrate: 4-Nitrophenyl acetate (4-NPA)). The settings on record: erythrocyte; Not Active = under 50% inhibition at 10 µM. The format is tissue-based, Erythrocyte.

Chain of Mitogen-activated protein kinase 1 (P28482 whole entry): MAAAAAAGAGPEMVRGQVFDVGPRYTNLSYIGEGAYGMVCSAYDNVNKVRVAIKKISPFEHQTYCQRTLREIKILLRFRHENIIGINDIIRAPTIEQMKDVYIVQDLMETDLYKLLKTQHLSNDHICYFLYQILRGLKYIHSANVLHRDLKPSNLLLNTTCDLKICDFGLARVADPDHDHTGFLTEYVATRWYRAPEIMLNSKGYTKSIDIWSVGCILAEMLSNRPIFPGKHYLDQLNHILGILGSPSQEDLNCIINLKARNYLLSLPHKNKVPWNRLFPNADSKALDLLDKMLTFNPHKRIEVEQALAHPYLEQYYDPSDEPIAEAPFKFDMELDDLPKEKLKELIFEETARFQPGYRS
Chain of Prostaglandin G/H synthase 1 (P23219 whole entry): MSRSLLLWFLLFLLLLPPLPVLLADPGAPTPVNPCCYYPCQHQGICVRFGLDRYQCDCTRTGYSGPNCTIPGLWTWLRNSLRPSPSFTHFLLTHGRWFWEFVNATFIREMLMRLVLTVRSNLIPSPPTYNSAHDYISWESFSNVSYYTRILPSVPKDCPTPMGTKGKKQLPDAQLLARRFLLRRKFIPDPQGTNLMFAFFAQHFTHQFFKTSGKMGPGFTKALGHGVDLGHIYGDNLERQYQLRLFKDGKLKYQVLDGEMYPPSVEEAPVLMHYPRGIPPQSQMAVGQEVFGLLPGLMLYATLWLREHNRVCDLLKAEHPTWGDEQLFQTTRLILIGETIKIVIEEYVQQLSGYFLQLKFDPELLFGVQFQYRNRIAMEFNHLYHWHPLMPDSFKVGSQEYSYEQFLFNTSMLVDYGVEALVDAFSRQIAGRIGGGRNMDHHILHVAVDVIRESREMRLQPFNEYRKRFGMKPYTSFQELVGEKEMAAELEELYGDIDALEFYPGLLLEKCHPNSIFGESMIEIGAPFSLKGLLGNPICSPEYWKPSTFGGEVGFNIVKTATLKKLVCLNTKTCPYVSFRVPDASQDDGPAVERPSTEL
Chain of Acetylcholinesterase (P22303 whole entry): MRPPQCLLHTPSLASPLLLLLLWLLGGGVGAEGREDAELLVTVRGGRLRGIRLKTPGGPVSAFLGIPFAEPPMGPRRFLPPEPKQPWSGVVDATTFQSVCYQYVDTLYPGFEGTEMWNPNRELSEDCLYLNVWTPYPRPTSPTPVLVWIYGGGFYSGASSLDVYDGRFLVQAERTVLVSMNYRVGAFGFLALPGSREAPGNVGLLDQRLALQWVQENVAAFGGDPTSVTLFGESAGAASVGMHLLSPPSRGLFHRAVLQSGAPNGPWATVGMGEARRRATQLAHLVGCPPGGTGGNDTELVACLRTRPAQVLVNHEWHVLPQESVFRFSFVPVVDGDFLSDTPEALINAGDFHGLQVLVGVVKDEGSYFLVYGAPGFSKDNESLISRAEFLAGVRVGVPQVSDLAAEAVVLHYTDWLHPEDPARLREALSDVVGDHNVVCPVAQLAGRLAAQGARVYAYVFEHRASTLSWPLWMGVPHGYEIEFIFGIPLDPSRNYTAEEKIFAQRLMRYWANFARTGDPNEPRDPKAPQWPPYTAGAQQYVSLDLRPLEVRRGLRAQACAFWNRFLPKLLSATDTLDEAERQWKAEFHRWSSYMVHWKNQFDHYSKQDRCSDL
Chain of Kappa-type opioid receptor (P41145 whole entry): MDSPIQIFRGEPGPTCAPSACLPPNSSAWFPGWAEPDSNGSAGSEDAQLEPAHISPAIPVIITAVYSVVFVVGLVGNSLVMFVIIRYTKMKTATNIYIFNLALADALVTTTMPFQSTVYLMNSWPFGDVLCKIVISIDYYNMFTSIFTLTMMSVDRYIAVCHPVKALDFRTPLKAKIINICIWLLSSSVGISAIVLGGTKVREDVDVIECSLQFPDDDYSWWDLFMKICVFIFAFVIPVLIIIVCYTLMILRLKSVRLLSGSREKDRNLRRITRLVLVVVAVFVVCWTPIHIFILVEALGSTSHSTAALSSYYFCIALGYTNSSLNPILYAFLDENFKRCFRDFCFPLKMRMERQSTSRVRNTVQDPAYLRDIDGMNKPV
Chain of Melanocortin receptor 4 (P32245 whole entry): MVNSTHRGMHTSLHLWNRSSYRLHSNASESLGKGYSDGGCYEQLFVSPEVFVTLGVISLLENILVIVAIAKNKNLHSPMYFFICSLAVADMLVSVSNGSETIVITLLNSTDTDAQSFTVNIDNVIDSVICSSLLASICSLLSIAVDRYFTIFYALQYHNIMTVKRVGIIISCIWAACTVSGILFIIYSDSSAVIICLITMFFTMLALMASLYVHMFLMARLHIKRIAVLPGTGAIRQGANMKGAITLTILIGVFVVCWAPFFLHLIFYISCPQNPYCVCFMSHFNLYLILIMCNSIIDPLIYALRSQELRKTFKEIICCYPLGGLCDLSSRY
Chain of Matrix metalloproteinase-9 (P14780 whole entry): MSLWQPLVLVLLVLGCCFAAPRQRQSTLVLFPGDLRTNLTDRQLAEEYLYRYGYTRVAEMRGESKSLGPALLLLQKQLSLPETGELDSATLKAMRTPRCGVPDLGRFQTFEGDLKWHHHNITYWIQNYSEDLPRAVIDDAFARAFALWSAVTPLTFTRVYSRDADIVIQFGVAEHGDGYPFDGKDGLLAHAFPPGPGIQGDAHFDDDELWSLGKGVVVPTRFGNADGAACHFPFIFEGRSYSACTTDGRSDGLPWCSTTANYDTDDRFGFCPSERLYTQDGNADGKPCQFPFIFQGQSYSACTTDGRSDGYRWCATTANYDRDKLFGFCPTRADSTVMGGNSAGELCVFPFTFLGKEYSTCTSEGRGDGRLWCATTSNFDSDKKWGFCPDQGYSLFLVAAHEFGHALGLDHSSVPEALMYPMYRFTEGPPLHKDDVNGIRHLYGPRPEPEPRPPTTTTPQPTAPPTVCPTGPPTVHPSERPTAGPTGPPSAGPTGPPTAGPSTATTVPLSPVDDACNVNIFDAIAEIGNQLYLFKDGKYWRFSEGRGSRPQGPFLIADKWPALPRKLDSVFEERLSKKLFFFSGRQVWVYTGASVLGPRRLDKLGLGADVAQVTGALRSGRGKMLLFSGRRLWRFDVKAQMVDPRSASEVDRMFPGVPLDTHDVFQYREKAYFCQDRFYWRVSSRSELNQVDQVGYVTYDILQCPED

As to `CCOC(=O)[C@H](CCc1ccccc1)N[C@@H](C)C(=O)N1[C@H](C(=O)O)C[C@@H]2CCC[C@@H]21`, the IC50 entry (in test [1]; in [2]; in test [3]; in [4]; on B2 bradykinin receptor; in [5]) was “Not Active” throughout. For the same compound, the IC50 entry (in test [6]; at Caspase-1; against Acetylcholinesterase; in [7]; in test [8]; against Melanocortin receptor 4) was “Not Active” each time. Besides, at Carbonic anhydrase 2, the IC50 result was “Not Active”. Moreover, the Ki entry in test [5] and in test [7] was “Not Active” each time.

Regarding `CC1(C)[C@H]2CC[C@]1(C)C(=O)C2` [(-)-CAMPHOR], the IC50 result (in test [1]; in test [2]; in test [3]; in [4]; against B2 bradykinin receptor; in [5]) was “Not Active” throughout. Also, the IC50 entry (in test [6]; at Caspase-1; at Acetylcholinesterase; in test [7]; in test [8]; against Melanocortin receptor 4) was “Not Active” throughout. In addition, the IC50 result against Carbonic anhydrase 2 is “Not Active”. The Ki entry in test [5] and in test [7] was “Not Active” each time.

Take `CC(C)(C)NCC(O)c1ccc(O)c(CO)c1` (stereo not given) [ALBUTEROL]: the IC50 result (in test [1]; in test [2]; in [3]; in test [4]; against B2 bradykinin receptor; in test [5]) was “Not Active” in each case. The IC50 result (in test [6]; on Caspase-1; against Acetylcholinesterase; in [7]; in test [8]; against Melanocortin receptor 4) was “Not Active” each time. Moreover, the IC50 entry on Carbonic anhydrase 2 was “Not Active”. In addition, the Ki result in test [5] and in test [7] was “Not Active” in each case.

As for `Oc1c(I)cc(I)c2cccnc12` [IODOQUINOL], the IC50 is 0.294 µM in test [1] (read-out: IC50); “Not Active” in test [2]; “Not Active” in test [3]; “Not Active” in test [4]; “Not Active” against B2 bradykinin receptor; “Not Active” in test [5]. Moreover, the IC50 result (in [6]; at Caspase-1; against Acetylcholinesterase; in test [7]; in [8]; on Melanocortin receptor 4) was “Not Active” each time. For the same compound, on Carbonic anhydrase 2, the IC50 entry is reported as “Not Active”. Further, the Ki result in [5] and in test [7] was “Not Active” in each case.

For the compound `NNC(=O)c1ccncc1` [ISONIAZID], the IC50 entry (in test [1]; in test [2]; in test [3]; in test [4]; against B2 bradykinin receptor; in test [5]) was “Not Active” throughout. Also, the IC50 entry (in [6]; against Caspase-1; at Acetylcholinesterase; in test [7]; in [8]; on Melanocortin receptor 4) was “Not Active” throughout. On Carbonic anhydrase 2, the IC50 entry was “Not Active”. Also, the Ki entry in [5] and in [7] was “Not Active” each time.

As for `CC1=C(/C=C/C(C)=C/C=C/C(C)=C\C(=O)O)C(C)(C)CCC1` [ISOTRETINOIN], the 50% inhibitory concentration (IC50) in test [1] (read-out: IC50) is 0.462 µM; in test [2], “Not Active”; in test [3] it was “Not Active”; in test [4] it was “Not Active”; at B2 bradykinin receptor it was “Not Active”; in test [5], “Not Active”. The IC50 result (in [6]; at Caspase-1; on Acetylcholinesterase; in test [7]; in test [8]; against Melanocortin receptor 4) was “Not Active” each time. Further, on Carbonic anhydrase 2, the IC50 entry was “Not Active”. The Ki entry in test [5] and in [7] was “Not Active” in each case.

As for `CO[C@@H]1[C@@H](O[C@@H]2O[C@H](C)[C@@H](O[C@H]3C[C@@](C)(O)[C@@H](OC(=O)CC(C)C)[C@H](C)O3)[C@H](N(C)C)[C@H]2O)[C@@H](CC=O)C[C@@H](C)[C@@H](O)/C=C/C=C/C[C@@H](C)OC(=O)C[C@H]1O` [KITASAMYCIN], the IC50 entry (in [1]; in test [2]; in test [3]; in test [4]; at B2 bradykinin receptor; in [5]) was “Not Active” each time. In addition, the IC50 result (in [6]; at Caspase-1; against Acetylcholinesterase; in test [7]; in test [8]; against Melanocortin receptor 4) was “Not Active” throughout. Further, on Carbonic anhydrase 2, the IC50 entry is recorded as “Not Active”. For the same compound, the Ki result in test [5] and in test [7] was “Not Active” throughout.

(Values after ChEMBL document CHEMBL1909046, “DrugMatrix in vitro pharmacology data”.)
